Experimental findings from ChEMBL document CHEMBL5113511, “Discovery of Small-Molecule Degraders of the CDK9-Cyclin T1 Complex for Targeting Transcriptional Addiction in Prostate Cancer” (J Med Chem, 2022) are described below.

What is called IC50 is the concentration that gives 50% inhibition.

Assay [1] concerns the target T1, Cyclin-dependent kinase 9 (Homo sapiens, UniProt P50750). In words: Induction of HyT-mediated degradation of CDK9 in human 22Rv1 cells at 0.3 to 3 uM incubated for 24 hrs by immunoblot analysis. Conditions: dose 0.3-3 µM. Format: cell-based. For orientation: A western blot detects proteins with antibodies after separation by electrophoresis.
Assay [2] concerns the target T2, Cyclin-T1 (Homo sapiens, UniProt O60563). In words: Induction of HyT-mediated degradation of Cyclin T1 in human 22Rv1 cells at 0.3 to 3 uM incubated for 24 hrs by immunoblot analysis. As to conditions: dose 0.3-3 µM. Format: cell-based.
The target in assay [3] is T2, Cyclin-T1. In words: Induction of HyT-mediated degradation of Cyclin T1 in human 22Rv1 cells assessed as reduction in Cyclin T1 level at 3 uM incubated for 24 hrs by immunoblot analysis. The class given is cell-based.
The target in assay [4] is T1, Cyclin-dependent kinase 9. As to the kind of experiment: Induction of HyT-mediated degradation of CDK9 in human 22Rv1 cells assessed as reduction in CDK9 protein level at 3 uM incubated for 24 hrs by immunoblot analysis relative to control. The class given is cell-based. On the set-up: scale not given: the % may be the effect or the level left.
For assay [5], the target named is T1, Cyclin-dependent kinase 9. In words: Induction of HyT-mediated degradation of CDK9 in human 22Rv1 cells at 3 uM incubated for 24 hrs by immunoblot analysis relative to control. Format: cell-based.
Assay [6] deals with T2, Cyclin-T1. In words: Induction of HyT-mediated degradation of Cyclin T1 in human 22Rv1 cells at 3 uM incubated for 24 hrs by immunoblot analysis relative to control. The class given is cell-based.
Assay [7] addresses T1, Cyclin-dependent kinase 9. As to the kind of experiment: Induction of CDK9 degradation in human 22Rv1 cells at 3 uM incubated for 24 hrs by DIA-based proteomics analysis. The class given is cell-based.
Assay [8] has as its target T1, Cyclin-dependent kinase 9. In words: Induction of CDK9 degradation in human 22Rv1 cells assessed as decrease in cyclin B1 protein expression at 3 uM measured for 36 hrs by DIA-based proteomics analysis. Format: cell-based.
Assay [9] has as its target T1, Cyclin-dependent kinase 9. In words: Induction of CDK9 degradation in human 22Rv1 cells assessed as downregulation of AR protein expression at 3 uM measured for 36 hrs by DIA-based proteomics analysis. Format: cell-based.
The target of assay [10] is T1, Cyclin-dependent kinase 9. In words: Induction of degradation of CDK9 in human 22Rv1 cells at 3 uM measured for 36 hrs by DIA-based proteomics analysis. Format: cell-based.
Assay [11] deals with Cyclin-dependent kinase 6 (Homo sapiens) (UniProt Q00534). In words: Induction of CDK6 degradation in human 22Rv1 cells assessed as downregulation of CDK6 level at 3 uM measured after 12 hrs by DIA-based proteomics analysis. Format: cell-based.
Chain of Cyclin-dependent kinase 6 (Homo sapiens) (Q00534 whole entry): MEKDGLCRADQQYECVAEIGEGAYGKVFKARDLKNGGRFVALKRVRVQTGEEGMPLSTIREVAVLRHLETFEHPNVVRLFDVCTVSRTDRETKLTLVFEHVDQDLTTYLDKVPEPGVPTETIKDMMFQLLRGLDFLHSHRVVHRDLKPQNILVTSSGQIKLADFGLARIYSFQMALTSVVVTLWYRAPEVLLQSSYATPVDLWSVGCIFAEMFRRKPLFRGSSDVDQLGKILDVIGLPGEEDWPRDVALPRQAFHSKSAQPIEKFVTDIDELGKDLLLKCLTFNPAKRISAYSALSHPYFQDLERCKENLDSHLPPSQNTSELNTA
Assay [12] concerns CWR22R. In words: Induction of cell cycle arrest in human 22Rv1 cells assessed as accumulation of cells at G1 phase at 0.3 to 1 uM incubated for 24 hrs by propidium iodide staining based flow cytometry. Format: functional. As to conditions: dose 0.3-1 µM. (In general: Flow cytometry measures light scatter and fluorescence of single cells or particles in a stream.)
The test system of assay [13] is CWR22R. In words: Downregulation of CCNT1 mRNA expression in human 22Rv1 cells at 2 uM incubated for 24 hrs by transcriptome RNA-seq analysis. The class given is functional, cell-based.
Assay [14] deals with CWR22R. As to the kind of experiment: Induction of cell cycle arrest in human 22Rv1 cells assessed as accumulation of cells at sub-G1 phase at 0.3 to 1 uM incubated for 24 hrs by propidium iodide staining based flow cytometry. Conditions: dose 0.3-1 µM. The class given is functional.
Assay [15] deals with Cyclin-dependent kinase 7 (Homo sapiens) (UniProt P50613). In words: Induction of CDK7 degradation in human 22Rv1 cells assessed as downregulation of CDK7 level at 3 uM measured after 12 hrs by DIA-based proteomics analysis. The class given is cell-based.
Chain of Cyclin-dependent kinase 7 (Homo sapiens) (P50613 whole entry): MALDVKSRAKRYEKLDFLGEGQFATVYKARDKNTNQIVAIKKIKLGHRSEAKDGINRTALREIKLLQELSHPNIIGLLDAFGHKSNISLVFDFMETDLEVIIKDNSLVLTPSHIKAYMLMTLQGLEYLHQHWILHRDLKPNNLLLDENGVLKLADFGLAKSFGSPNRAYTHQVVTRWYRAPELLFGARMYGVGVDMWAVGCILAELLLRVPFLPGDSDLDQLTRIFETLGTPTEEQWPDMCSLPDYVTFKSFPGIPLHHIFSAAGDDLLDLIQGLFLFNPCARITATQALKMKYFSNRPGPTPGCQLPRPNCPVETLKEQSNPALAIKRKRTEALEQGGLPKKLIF
Assay [16] addresses T1, Cyclin-dependent kinase 9. As to the kind of experiment: Induction of CDK9 degradation in human 22Rv1 cells assessed as decrease in cyclin C protein expression at 3 uM measured for 36 hrs by DIA-based proteomics analysis. Format: cell-based.
Assay [17] addresses T1, Cyclin-dependent kinase 9. In words: Induction of CDK9 degradation in human 22Rv1 cells assessed as decrease in cyclin A2 protein expression at 3 uM measured for 36 hrs by DIA-based proteomics analysis. Format: cell-based.
In assay [18] the test system is CWR22R. As to the kind of experiment: Inhibition of colony formation in human 22Rv1 cells at 100 to 200 nM treated for 14 days with replacement with fresh medium containing compound for every 48 hrs by crystal violet staining based analysis. Format: functional, cell-based. Conditions: dose 100-200 nM, time 14.0 day.
Assay [19] deals with CWR22R. As to the kind of experiment: Antiproliferative activity against human 22Rv1 cells assessed as reduction in cell viability measured after 5 days by CellTiter-Glo assay. The class given is functional, cell-based. Conditions: 22Rv1, 120 h. For orientation: In ATP-based viability assays light output follows the ATP content of the culture.
Assay [20] concerns the target T1, Cyclin-dependent kinase 9. In words: Induction of CDK9 degradation in human 22Rv1 cells assessed as decrease in cyclin D1 protein expression at 3 uM measured for 36 hrs by DIA-based proteomics analysis. Format: cell-based.
The target in assay [21] is Cyclin-dependent kinase 11B (Homo sapiens) (UniProt P21127). In words: Induction of CDK11B degradation in human 22Rv1 cells at 3 uM measured after 36 hrs by DIA-based proteomics analysis. Format: cell-based.
Chain of Cyclin-dependent kinase 11B (Homo sapiens) (P21127 whole entry): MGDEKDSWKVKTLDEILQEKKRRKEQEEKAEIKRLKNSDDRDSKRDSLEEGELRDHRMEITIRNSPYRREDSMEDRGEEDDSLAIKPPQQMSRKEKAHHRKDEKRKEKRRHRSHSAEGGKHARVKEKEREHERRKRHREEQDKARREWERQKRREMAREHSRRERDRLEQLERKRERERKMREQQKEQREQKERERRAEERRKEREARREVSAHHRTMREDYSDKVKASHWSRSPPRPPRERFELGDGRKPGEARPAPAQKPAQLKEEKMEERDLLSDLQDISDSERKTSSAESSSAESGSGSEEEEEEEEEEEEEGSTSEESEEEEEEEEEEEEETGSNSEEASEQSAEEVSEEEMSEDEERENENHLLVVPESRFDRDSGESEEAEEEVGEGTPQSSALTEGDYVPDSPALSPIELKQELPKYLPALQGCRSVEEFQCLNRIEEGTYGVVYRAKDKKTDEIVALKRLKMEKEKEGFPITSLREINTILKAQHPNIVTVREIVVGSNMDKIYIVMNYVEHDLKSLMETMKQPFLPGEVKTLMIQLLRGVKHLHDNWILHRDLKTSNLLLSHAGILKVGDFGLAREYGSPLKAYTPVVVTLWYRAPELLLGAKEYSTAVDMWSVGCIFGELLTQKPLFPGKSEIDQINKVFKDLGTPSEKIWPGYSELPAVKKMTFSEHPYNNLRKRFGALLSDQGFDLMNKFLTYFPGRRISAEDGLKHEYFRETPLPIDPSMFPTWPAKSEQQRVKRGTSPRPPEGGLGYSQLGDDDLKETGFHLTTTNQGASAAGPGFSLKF
In assay [22] the target is Cyclin-dependent kinase 4 (Homo sapiens) (UniProt P11802). As to the kind of experiment: Induction of CDK4 degradation in human 22Rv1 cells assessed as downregulation of CDK4 level at 3 uM measured after 12 hrs by DIA-based proteomics analysis. Format: cell-based.
Chain of Cyclin-dependent kinase 4 (Homo sapiens) (P11802 whole entry): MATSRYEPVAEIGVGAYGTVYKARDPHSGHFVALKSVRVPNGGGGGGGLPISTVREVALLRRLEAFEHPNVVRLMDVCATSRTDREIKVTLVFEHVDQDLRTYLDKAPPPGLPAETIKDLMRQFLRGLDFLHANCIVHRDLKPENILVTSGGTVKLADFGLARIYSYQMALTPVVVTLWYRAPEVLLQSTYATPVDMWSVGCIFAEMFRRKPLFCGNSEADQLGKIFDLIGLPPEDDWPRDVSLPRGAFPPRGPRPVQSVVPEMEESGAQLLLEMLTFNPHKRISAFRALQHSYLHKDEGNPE
The subject of assay [23] is CWR22R. In words: Induction of apoptosis in human 22Rv1 cells at 0.3 to 1 uM incubated for 24 hrs by AnnexinV-FITC/PI staining based flow cytometry. Format: functional, cell-based. As to conditions: dose 0.3-1 µM.
Assay [24] concerns the target T1, Cyclin-dependent kinase 9. In words: Induction of degradation of CDK9 in human 22Rv1 cells at 2 uM measured after 0 to 7 hrs by immunoblot analysis. As to conditions: time 0-7 hrs. Format: cell-based.
For assay [25], the target named is T1, Cyclin-dependent kinase 9. In words: Induction of CDK9 degradation in human 22Rv1 cells assessed as downregulation of MCL1 protein expression at 0.3 to 3 uM incubated for 24 hrs by immunoblot analysis. The class given is cell-based. Conditions: dose 0.3-3 µM.
Assay [26] has as its target T1, Cyclin-dependent kinase 9. In words: Induction of degradation of CDK9 in human 22Rv1 cells assessed as reduction in CDK9 level at 2 uM measured after 9 hrs by immunoblot analysis. Format: cell-based.
The target in assay [27] is T2, Cyclin-T1. In words: Induction of degradation of Cyclin T1 in human 22Rv1 cells at 3 uM measured for 36 hrs by DIA-based proteomics analysis. The class given is cell-based.
In assay [28] the target is Cyclin-dependent kinase 1 (Homo sapiens) (UniProt P06493). As to the kind of experiment: Induction of CDK1 degradation in human 22Rv1 cells assessed as downregulation of CDK1 level at 3 uM measured after 12 hrs by DIA-based proteomics analysis. Format: cell-based.
Chain of Cyclin-dependent kinase 1 (Homo sapiens) (P06493 whole entry, looked up): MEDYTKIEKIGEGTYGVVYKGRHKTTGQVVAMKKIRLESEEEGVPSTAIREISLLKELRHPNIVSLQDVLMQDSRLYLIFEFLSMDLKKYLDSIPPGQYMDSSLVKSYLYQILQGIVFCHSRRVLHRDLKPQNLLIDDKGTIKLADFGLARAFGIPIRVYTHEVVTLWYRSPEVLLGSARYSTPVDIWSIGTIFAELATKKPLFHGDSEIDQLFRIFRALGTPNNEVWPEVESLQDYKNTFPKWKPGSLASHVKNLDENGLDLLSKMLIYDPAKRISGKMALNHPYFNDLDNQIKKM
In assay [29] the target is T2, Cyclin-T1. As to the kind of experiment: Induction of Cyclin T1 degradation in human 22Rv1 cells assessed as cyclin T1 level at 3 uM incubated for 24 hrs by DIA-based proteomics analysis. Format: cell-based.
The target of assay [30] is T1, Cyclin-dependent kinase 9. In words: Induction of CDK9 degradation in human 22Rv1 cells assessed as inhibition of Ser2 phosphorylation of RNA Pol II CTD at 0.3 to 3 uM incubated for 24 hrs by immunoblot analysis. The class given is cell-based. Conditions: dose 0.3-3 µM.
Assay [31] deals with CWR22R. In words: Downregulation of cyclin D1 protein expression in human 22Rv1 cells at 2 uM incubated for 24 hrs by DIA-based proteomics analysis. Format: functional, cell-based.
Assay [32] has as its system CWR22R. In words: Upregulation of […] protein expression in human 22Rv1 cells at 2 uM incubated for 24 hrs by DIA-based proteomics analysis. The class given is functional, cell-based.

The source made the active and inactive calls. The calls are words filed in the database; no cut-off is given here.

T1 sequence (P50750 whole entry): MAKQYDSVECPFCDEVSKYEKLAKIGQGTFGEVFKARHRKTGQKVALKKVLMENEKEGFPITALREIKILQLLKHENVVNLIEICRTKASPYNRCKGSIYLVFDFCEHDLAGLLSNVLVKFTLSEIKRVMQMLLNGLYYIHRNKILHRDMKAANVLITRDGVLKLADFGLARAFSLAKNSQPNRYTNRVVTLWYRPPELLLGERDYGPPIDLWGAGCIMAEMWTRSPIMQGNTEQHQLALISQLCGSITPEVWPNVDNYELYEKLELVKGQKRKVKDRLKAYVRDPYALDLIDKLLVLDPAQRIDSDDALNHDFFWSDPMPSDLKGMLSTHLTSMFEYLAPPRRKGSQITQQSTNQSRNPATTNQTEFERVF
T2 sequence (O60563 whole entry): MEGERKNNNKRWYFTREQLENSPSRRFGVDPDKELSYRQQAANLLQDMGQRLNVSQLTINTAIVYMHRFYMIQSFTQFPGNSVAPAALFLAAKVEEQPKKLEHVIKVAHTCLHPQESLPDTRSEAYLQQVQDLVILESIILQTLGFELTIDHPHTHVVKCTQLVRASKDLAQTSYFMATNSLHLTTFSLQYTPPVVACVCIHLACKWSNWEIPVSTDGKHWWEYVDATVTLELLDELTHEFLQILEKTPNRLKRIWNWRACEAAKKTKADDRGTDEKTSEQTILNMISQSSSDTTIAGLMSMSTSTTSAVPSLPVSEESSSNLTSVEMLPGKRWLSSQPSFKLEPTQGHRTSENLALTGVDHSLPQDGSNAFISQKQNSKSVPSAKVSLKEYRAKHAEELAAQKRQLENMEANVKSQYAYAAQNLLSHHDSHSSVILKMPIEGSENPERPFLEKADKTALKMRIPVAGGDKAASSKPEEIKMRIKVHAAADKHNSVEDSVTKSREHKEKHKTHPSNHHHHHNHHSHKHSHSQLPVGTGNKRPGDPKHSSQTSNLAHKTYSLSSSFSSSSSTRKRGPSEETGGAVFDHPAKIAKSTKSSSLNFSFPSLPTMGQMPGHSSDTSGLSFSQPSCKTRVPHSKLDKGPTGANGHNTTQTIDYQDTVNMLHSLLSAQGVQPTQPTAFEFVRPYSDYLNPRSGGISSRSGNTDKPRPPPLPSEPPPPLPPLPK

`CC(C)(C)OC(=O)NC(=NCCC[C@@H](NC(=O)OC(C)(C)C)C(=O)NCCS(=O)(=O)N1CCC(C(=O)Nc2ncc(SCc3ncc(C(C)(C)C)o3)s2)CC1)NC(=O)OC(C)(C)C`: the outcome in [1] and in assay [2] was Active.

For the compound `CC(C)[C@@H]1CC[C@@H](C)C[C@H]1OCC(=O)NCCOCCS(=O)(=O)N1CCC(C(=O)Nc2ncc(SCc3ncc(C(C)(C)C)o3)s2)CC1`, the result in [1] and in assay [3] was Active.

Consider `CC(C)[C@@H]1CC[C@@H](C)C[C@H]1OCC(=O)NCCN1CCC(C(=O)Nc2ncc(SCc3ncc(C(C)(C)C)o3)s2)CC1`, for which the outcome in assay [1] and in assay [2] was Active.

Turning to `CC(C)[C@@H]1CC[C@@H](C)C[C@H]1OCC(=O)N1CCN(CCS(=O)(=O)N2CCC(C(=O)Nc3ncc(SCc4ncc(C(C)(C)C)o4)s3)CC2)CC1`, in assay [4], the Activity was more than 50%.

As for `CC(C)[C@@H]1CC[C@@H](C)C[C@H]1OCC(=O)NCCCCN1CCC(C(=O)Nc2ncc(SCc3ncc(C(C)(C)C)o3)s2)CC1`, the outcome in assay [1] and in [2] was Active.

With `CC(C)[C@@H]1CC[C@@H](C)C[C@H]1OCC(=O)NCCCOCCS(=O)(=O)N1CCC(C(=O)Nc2ncc(SCc3ncc(C(C)(C)C)o3)s2)CC1`, the Activity in assay [5] and in assay [6] was less than 40% each time.

Take `CC(C)(C)c1cnc(CSc2cnc(NC(=O)C3CCN(CC(=O)NCCOCCOCCOCCNc4cccc5c4C(=O)N(C4CCC(=O)NC4=O)C5=O)CC3)s2)o1` (stereo not given): the outcome in [7], in assay [8], in assay [9], in [10], in assay [11] and in assay [12] was Active. Besides, the result in assay [14], in [15], in [16], in [17], in assay [20] and in assay [21] was Active. The result in assay [22], in assay [23], in assay [24], in [25], in [26] and in assay [27] was Active. In addition, the result in assay [28] and in assay [30] was Active. The inhibition result in assay [13] and in assay [18] was “Active” throughout. Besides, in [19], the IC50 worked out at 49 nM. Also, the Activity in assay [29] worked out at 40.2%.

Regarding `CC(C)(C)c1cnc(CSc2cnc(NC(=O)C3CCN(S(=O)(=O)CCNC(=O)CC45CC6CC(CC(C6)C4)C5)CC3)s2)o1`, the outcome in assay [1] and in assay [2] was Active.

With `CC(C)(C)c1cnc(CSc2cnc(NC(=O)C3CCN(S(=O)(=O)CCNC(=O)NC45CC6CC(CC(C6)C4)C5)CC3)s2)o1`, the outcome in [1] and in [2] was Active.

As for `CC(C)(C)c1cnc(CSc2cnc(NC(=O)C3CCNCC3)s2)o1` [BMS-387032], the result in [12], in assay [14], in assay [23] and in assay [32] was Active. The inhibition entry in assay [31] is “Active”. For the same compound, the IC50 in [19] came to 384 nM.
